According to patent US20180170904A1, “PYRIDIN-3-YL ACETIC ACID DERIVATIVES AS INHIBITORS OF HUMAN IMMUNODEFICIENCY VIRUS REPLICATION” (priority 2015, published 2018):

The compounds below were run on NL-RLuc virus (recombinant NL4-3 proviral clone with Renilla Luciferase gene) (assay: Inhibition of HIV replication (NL-RLuc reporter virus in MT-2 cells)). Settings: Renilla, NL43, 120 h, read-out: Activity.
Assay type: cell-based
From the text: Inhibition of HIV replication: A recombinant NL-RLuc proviral clone was constructed in which a section of the nef gene from NL4-3 was replaced with the Renilla Luciferase gene. This virus is fully infectious and can undergo multiple cycles of replication in cell culture. In addition, the luciferous reporter provides a simple and easy method for quantitating the extent of virus growth and consequently, the antiviral activity of test compounds. The plasmid pNLRLuc contains the proviral NL-Rluc DNA cloned into pUC18 at the PvuII site. The NL-RLuc virus was prepared by transfection of 293T cells with the plasmid pNLRLuc. Transfections were performed using the LipofectAMINE PLUS kit from Invitrogen (Carlsbad, Calif.) according to the manufacturer and the virus generated was titered in MT-2 cells. For susceptibility analyses, the titrated virus was used to infect MT-2 cells in the presence of compound, and after 5 days of incubation, cells were processed and quantitated for virus growth by the amount of expressed luciferase. Assay media was RPMI 1640 supplemented with 10% heat inactivated fetal bovine serum (FBS), 100 units/ml penicillin G/100 units/ml streptomycin, 10 mM HEPES buffer pH 7.55 and 2 mM L-glutamine. The results from at least 2 experiments were used to calculate the EC50 values. Luciferase was quantitated using the Dual Luciferase kit from Promega (Madison, Wis.). Susceptibility of viruses to compounds was determined by incubation in the presence of serial dilutions of the compound. The 50% effective concentration (EC50) was calculated by using the exponential form of the median effect equation where (Fa)=1/[1+(ED50/drug conc.)^m] (Johnson V A, Byington R T. Infectivity Assay. In Techniques in HIV Research. ed. Aldovini A, Walker B D. 71-76. New York: Stockton Press.1990). Activity equal to A refers to a compound having an EC50≤100 nM, while B and C denote compounds having an EC50 between 100 nM and 1 uM (B) or >1 uM (C).
Work on `Cc1nc(C)c([C@H](OC(C)(C)C)C(=O)O)c(N2CCC(C)(C)CC2)c1-c1ccc(C(C)(C)C#N)cc1` [Example 36, (S)-2-(tert-Butoxy)-2-(5-(4-(2-cyanopropan-2-yl)phenyl)-4-(4,4-dimethylpiperidin-1-yl)-2,6-dimethylpyridin-3-yl)acetic acid] yielded an EC50 of less than 0.1 µM. For `Cc1nc(C)c([C@H](OC(C)(C)C)C(=O)O)c(N2CCC(C)(C)CC2)c1-c1ccc(C(=O)CCc2ccc(F)cc2)cc1` [Example 50, (S)-2-(tert-Butoxy)-2-(4-(4,4-dimethylpiperidin-1-yl)-5-(4-(3-(4-fluorophenyl)propanoyl)phenyl)-2,6-dimethylpyridin-3-yl)acetic acid], the EC50 was less than 0.1 µM. With `Cc1nc(C)c([C@H](OC(C)(C)C)C(=O)O)c(N2CCC(C)(C)CC2)c1-c1ccc(C=Cc2ccc(F)cc2)cc1` [Example 84, (S)-2-(tert-Butoxy)-2-(4-(4,4-dimethylpiperidin-1-yl)-5-(4-(4-fluorostyryl)phenyl)-2,6-dimethylpyridin-3-yl)acetic acid] the EC50 was 0.1 to 1 µM. In the case of `Cc1nc(C)c([C@H](OC(C)(C)C)C(=O)O)c(N2CCC(C)(C)CC2)c1-c1ccc(N(C)CCc2ccc(F)cc2)cc1` [Example 76, (S)-2-(tert-Butoxy)-2-(4-(4,4-dimethylpiperidin-1-yl)-5-(4-((4-fluorophenethyl)(methyl)amino)phenyl)-2,6-dimethylpyridin-3-yl)acetic acid], the EC50 is reported as less than 0.1 µM. Work on `COc1cccc(-c2ccc(-c3c(C)nc(C)c([C@H](OC(C)(C)C)C(=O)O)c3N3CCC(C)(C)CC3)cc2)c1` [Example 21, (S)-2-(tert-Butoxy)-2-(4-(4,4-dimethylpiperidin-1-yl)-5-(3′-methoxy-[1,1′-biphenyl]-4-yl)-2,6-dimethylpyridin-3-yl)acetic acid] yielded an EC50 of less than 0.1 µM. `Cc1nc(C)c([C@H](OC(C)(C)C)C(=O)O)c(N2CCC(C)(C)CC2)c1-c1ccc(SCCc2ccc(F)cc2)cc1` [Example 78, (S)-2-(tert-Butoxy)-2-(4-(4,4-dimethylpiperidin-1-yl)-5-(4-((4-fluorophenethyl)thio)phenyl)-2,6-dimethylpyridin-3-yl)acetic acid] showed an EC50 of less than 0.1 µM. `Cc1nc(C)c([C@H](OC(C)(C)C)C(=O)O)c(N2CCC(c3ccccc3)CC2)c1-c1ccc(C(=O)NCc2ccccc2)cc1` [Example 62, (S)-2-(5-(4-(Benzylcarbamoyl)phenyl)-2,6-dimethyl-4-(4-phenylpiperidin-1-yl)pyridin-3-yl)-2-(tert-butoxy)acetic acid] showed an EC50 greater than 1 µM. `Cc1nc(C)c([C@H](OC(C)(C)C)C(=O)O)c(N2CCC(C)(C)CC2)c1-c1ccc(C(=O)NCc2c(F)cc(F)cc2F)cc1` [Example 69, (S)-2-(tert-Butoxy)-2-(4-(4,4-dimethylpiperidin-1-yl)-2,6-dimethyl-5-(4-((2,4,6-trifluorobenzyl)carbamoyl)phenyl)pyridin-3-yl)acetic acid] gave an EC50 of less than 0.1 µM. Work on `Cc1nc(C)c([C@H](OC(C)(C)C)C(=O)O)c(N2CCC(C)(C)CC2)c1-c1ccccc1` [Example 7, (S)-2-(tert-Butoxy)-2-(4-(4,4-dimethylpiperidin-1-yl)-2,6-dimethyl-5-phenylpyridin-3-yl)acetic acid] yielded an EC50 of less than 0.1 µM. `Cc1nc(C)c([C@H](OC(C)(C)C)C(=O)O)c(N2CCC(C)(C)CC2)c1-c1ccc(CCCc2ccc(F)cc2)cc1` [Example 52, (S)-2-(tert-Butoxy)-2-(4-(4,4-dimethylpiperidin-1-yl)-5-(4-(3-(4-fluorophenyl)propyl)phenyl)-2,6-dimethylpyridin-3-yl)acetic acid] showed an EC50 of less than 0.1 µM. With `Cc1nc(C)c([C@H](OC(C)(C)C)C(=O)O)c(N2CCC(C)(C)CC2)c1-c1ccc(S(=O)(CCc2ccc(F)cc2)=NC(=O)OC(C)(C)C)cc1` (stereo partly drawn) [Example 81, (2S)-2-(tert-Butoxy)-2-(5-(4-(N-(tert-butoxycarbonyl)-2-(4-fluorophenyl)ethylsulfonimidoyl)phenyl)-4-(4,4-dimethylpiperidin-1-yl)-2,6-dimethylpyridin-3-yl)acetic acid] the EC50 was less than 0.1 µM. For `Cc1nc(C)c([C@H](OC(C)(C)C)C(=O)O)c(N2CCC(C)(C)CC2)c1-c1ccc(S(=O)(=O)C(C)C)cc1` [Example 30, (S)-2-(tert-Butoxy)-2-(4-(4,4-dimethylpiperidin-1-yl)-5-(4-(isopropylsulfonyl)phenyl)-2,6-dimethylpyridin-3-yl)acetic acid], the EC50 was less than 0.1 µM. Compound `Cc1nc(C)c([C@H](OC(C)(C)C)C(=O)O)c(N2CCC(C)(C)CC2)c1-c1ccc(C(=O)NCc2ccccn2)cc1` [Example 66, (S)-2-(tert-Butoxy)-2-(4-(4,4-dimethylpiperidin-1-yl)-2,6-dimethyl-5-(4-((pyridin-2-ylmethyl)carbamoyl)phenyl)pyridin-3-yl)acetic acid] has an EC50 of less than 0.1 µM. `CCCCCc1ccc(-c2c(C)nc(C)c([C@H](OC(C)(C)C)C(=O)O)c2N2CCC(C)(C)CC2)cc1` [Example 22, (S)-2-(tert-Butoxy)-2-(4-(4,4-dimethylpiperidin-1-yl)-2,6-dimethyl-5-(4-pentylphenyl)pyridin-3-yl)acetic acid] showed an EC50 of less than 0.1 µM. `Cc1nc(C)c([C@H](OC(C)(C)C)C(=O)O)c(N2CCC(C)(C)CC2)c1-c1cncnc1` [Example 28, (S)-2-(tert-Butoxy)-2-(4-(4,4-dimethylpiperidin-1-yl)-2,6-dimethyl-5-(pyrimidin-5-yl)pyridin-3-yl)acetic acid] was tested, and the EC50 was 0.1 to 1 µM. `Cc1nc(C)c([C@H](OC(C)(C)C)C(=O)O)c(N2CCC(C)(C)CC2)c1-c1ccc(C(=O)NCCc2ccc(F)cc2)cc1` [Example 2, (S)-2-(tert-Butoxy)-2-(4-(4,4-dimethylpiperidin-1-yl)-5-(4-((4-fluorophenethyl)carbamoyl)phenyl)-2,6-dimethylpyridin-3-yl)acetic acid] showed an EC50 of less than 0.1 µM. Work on `Cc1nc(C)c([C@H](OC(C)(C)C)C(=O)O)c(N2CCC(C)(C)CC2)c1-c1ccc(C(=O)NC2CC2)cc1` [Example 43, (S)-2-(tert-Butoxy)-2-(5-(4-(cyclopropylcarbamoyl)phenyl)-4-(4,4-dimethylpiperidin-1-yl)-2,6-dimethylpyridin-3-yl)acetic acid] yielded an EC50 of less than 0.1 µM. `Cc1nc(C)c([C@H](OC(C)(C)C)C(=O)O)c(N2CCC(C)(C)CC2)c1-c1ccc(-c2ccccc2)cc1` [Example 8, (S)-2-(5-([1,1′-Biphenyl]-4-yl)-4-(4,4-dimethylpiperidin-1-yl)-2,6-dimethylpyridin-3-yl)-2-(tert-butoxy)acetic acid] gave an EC50 of less than 0.1 µM. `CCCOc1ccc(-c2ccc(-c3c(C)nc(C)c([C@H](OC(C)(C)C)C(=O)O)c3N3CCC(C)(C)CC3)cc2)cc1` [Example 9, (S)-2-(tert-Butoxy)-2-(4-(4,4-dimethylpiperidin-1-yl)-2,6-dimethyl-5-(4′-propoxy-[1,1′-biphenyl]-4-yl)pyridin-3-yl)acetic acid] gave an EC50 of less than 0.1 µM. `Cc1nc(C)c([C@H](OC(C)(C)C)C(=O)O)c(N2CCC(C)(C)CC2)c1-c1ccc(/S(CCc2ccc(F)cc2)=N/C(=O)OC(C)(C)C)cc1` (stereo partly drawn) [Example 80, (2S)-2-(tert-Butoxy)-2-(5-(4-((E)-N-(tert-butoxycarbonyl)-S-(4-fluorophenethyl)sulfinimidoyl)phenyl)-4-(4,4-dimethylpiperidin-1-yl)-2,6-dimethylpyridin-3-yl)acetic acid] gave an EC50 of less than 0.1 µM.

Same assay, conditions: Renilla, NL43, 120 h, read-out: EC50 μM
`Cc1nc(C)c([C@H](OC(C)(C)C)C(=O)O)c(N2CCC(C)(C)CC2)c1-c1ccc(C=Cc2ccc(F)cc2)cc1` [Example 84, (S)-2-(tert-Butoxy)-2-(4-(4,4-dimethylpiperidin-1-yl)-5-(4-(4-fluorostyryl)phenyl)-2,6-dimethylpyridin-3-yl)acetic acid] gave an EC50 of 0.126 µM. Work on `Cc1nc(C)c([C@H](OC(C)(C)C)C(=O)O)c(N2CCC(C)(C)CC2)c1-c1ccc(SCCc2ccc(F)cc2)cc1` [Example 78, (S)-2-(tert-Butoxy)-2-(4-(4,4-dimethylpiperidin-1-yl)-5-(4-((4-fluorophenethyl)thio)phenyl)-2,6-dimethylpyridin-3-yl)acetic acid] yielded an EC50 of 0.016 µM. `Cc1nc(C)c([C@H](OC(C)(C)C)C(=O)O)c(N2CCC(C)(C)CC2)c1-c1ccc(C(=O)NCc2c(F)cc(F)cc2F)cc1` [Example 69, (S)-2-(tert-Butoxy)-2-(4-(4,4-dimethylpiperidin-1-yl)-2,6-dimethyl-5-(4-((2,4,6-trifluorobenzyl)carbamoyl)phenyl)pyridin-3-yl)acetic acid] showed an EC50 of 0.004 µM. In the case of `Cc1nc(C)c([C@H](OC(C)(C)C)C(=O)O)c(N2CCC(C)(C)CC2)c1-c1ccc(-c2ccccc2)cc1` [Example 8, (S)-2-(5-([1,1′-Biphenyl]-4-yl)-4-(4,4-dimethylpiperidin-1-yl)-2,6-dimethylpyridin-3-yl)-2-(tert-butoxy)acetic acid], the EC50 is reported as 0.031 µM.
